Reference: patent US12378216B2, “Heteroaryl(heterocyclyl)methanol compounds useful in the treatment of hyperglycaemia” (ATROGI AB, priority 2019, dated 2025)
Where a name gives a salt, the structure may show the parent alone.

Experiments:
[1] = system: Intracellular cAMP levels; assay: Measurement of intracellular cAMP levels in differentiated L6 cells (alpha screen cAMP kit); format: cell-based; settings: for Biological example 4: Table 2, the assay of Biological Example 2 (intracellular cAMP, agonist 1×10-^5, relative to isoproterenol); for Biological example 2 (intracellular cAMP levels, activity compared to that of isoproterenol): differentiated cells, agonist final concentration 1×10-^5, 15 min, relative to isoproterenol, Table 1
Procedure: (§1) L6-myoblasts were grown in Dulbecco's Modified Eagle's Medium (DMEM) containing 4.5 g/I glucose supplemented with 10% fetal bovine serum, 2 mM L-Glutamine, 50 U/ml penicillin, 50 μg/ml streptomycin and 10 mM HEPES. Cells were plated at 1×10^5 cells per ml in 24-well plates. After reaching 90% confluence the cells were grown in medium containing 2% FBS for 7 days where upon cells differentiated into myotubes.
Differentiated cells were serum-starved overnight and stimulated with agonist, final concentration 1×10-^5, for 15 min in stimulation buffer (HBSS supplemented with 1% BSA, 5 mM HEPES and 1 mM IBMX, pH 7.4) The medium was then aspirated and to end the reaction 100 μL of 95% EtOH was added to each well of a 24-well plate and cells were kept in −20° C. over night. The EtOH was let to evaporate and 500 μL of lysis buffer (1% BSA, 5 mM HEPES and 0.3% Tween-20, pH 7.4) was added to each well before put in −80° C. for 30 min and then kept in −20° C. Intracellular cAMP levels were detected using an alpha screen cAMP kit (6760635D from Perkin Elmer). The activity for each compound is compared to that of isoproterenol.

L6-myotubes = assay: Glucose uptake in differentiated L6-myotubes (3H-2-deoxy-glucose); format: cell-based; settings: for Biological example 3: Table 2, the assay of Biological Example 1 (glucose uptake, L6-myotubes, agonist 1×10^−5, relative to isoproterenol); for Biological example 1 (glucose uptake, activity compared to that of isoproterenol): L6-myotubes, agonist final concentration 1×10^−5, relative to isoproterenol, Table 1
Procedure: as §1
Differentiated L6-myotubes were serum-starved overnight in medium containing 0.5% fatty-acid free BSA and stimulated with agonist, final concentration 1×10^−5. After 1 h 40 min cells were washed with warm, glucose free medium or PBS and another portion of agonist was added to glucose free medium. After 20 min the cells were exposed to 50 nM ^3H-2-deoxy-glucose for another 10 min before washed in ice cold glucose free medium or PBS and lysed in 0.2 M NaOH for 1 h in 60° C.

Structure (SMILES) | Biological example 4 [1] | Biological example 3 (L6-myotubes) | Biological example 2 (intracellular cAMP levels, activity compared to that of isoproterenol) [1] | Biological example 1 (glucose uptake, activity compared to that of isoproterenol) (L6-myotubes)
CCC[C@@H]1CCCC[C@H]([C@H](O)c2cncc(F)c2)N1 [Example 13, (R)-(5-Fluoropyridin-3-yl)((2R,7R)-7-propylazepan-2-yl)methanol] | − (less than 25%) | − (less than 25%) |  | 
CCC[C@H]1CCC[C@H]([C@H](O)c2cncc(F)c2)N1 [Example 1, (R)-(5-Fluoropyridin-3-yl)((2R,6S)-6-propylpiperidin-2-yl)methanol dihydrochloride] |  |  | − (less than 25%) | − (less than 25%)
CC1(C)CC[C@H]([C@@H](O)c2cncc(F)c2)N1 [Example 6, (S)-((R)-5,5-Dimethylpyrrolidin-2-yl) (5-fluoropyridin-3-yl)methanol] |  |  | − (less than 25%) | − (less than 25%)
CCC[C@@H]1CC[C@H]([C@H](O)c2cncc(F)c2)N1.O=C(O)/C=C\C(=O)O [Example 3, (R)-(5-Fluoropyridin-3-yl)((2R,5R)-5-propylpyrrolidin-2-yl)methanol maleate] |  |  | − (less than 25%) | +++ (more than 75% of that of isoproterenol)
CCC[C@H]1CCC[C@H]([C@@H](O)c2cncc(F)c2)N1 [Example 2, (S)-(5-Fluoropyridin-3-yl)((2R,6S)-6-propylpiperidin-2-yl)methanol] |  |  | − (less than 25%) | − (less than 25%)
CC1(C)C[C@@H]([C@@H](O)c2cncc(F)c2)N1 [Example 11, (S)-((S)-4,4-Dimethylazetidin-2-yl) (5-fluoropyridine-3-yl) methanol dihydrochloride] | − (less than 25%) | + (between 50 and 25%) |  | 
CC1(C)CC[C@H]([C@@H](O)c2cncc(O)c2)N1 [Example 8, 5-((S)-((R)-5,5-dimethylpyrrolidin-2-yl)(hydroxy)methyl)pyridin-3-ol] |  |  | − (less than 25%) | + (between 50 and 25%)
CC1(C)CC[C@H]([C@H](O)c2cncc(F)c2)N1 [Example 5, (R)-((R)-5,5-Dimethylpyrrolidin-2-yl)(5-fluoropyridin-3-yl)methanol] |  |  | − (less than 25%) | +++ (more than 75% of that of isoproterenol)
CCC[C@H]1CCCC[C@@H]([C@@H](O)c2cncc(F)c2)N1 [Example 16] |  | + (between 50 and 25%) |  | 
CCC[C@H]1CCCC[C@@H]([C@H](O)c2cncc(F)c2)N1 [Example 15, (R)-(5-Fluoropyridin-3-yl)(S,7S)-7-propylazepan-2-yl)methanol dihydrochloride] |  | ++ (between 75 and 50%) |  | 
CC1(C)C[C@H]([C@@H](O)c2cncc(F)c2)N1 [Example 12, (S)-((R)-4,4-Dimethylazetidin-2-yl)(5-fluoropyridin-3-yl)methanol dihydrochloride] | − (less than 25%) | + (between 50 and 25%) |  | 
CC1(C)C[C@H]([C@H](O)c2cncc(F)c2)N1 [Example 9, (R)-((R)-4,4-Dimethylazetidin-2-yl)(5-fluoropyridine-3-yl)methanol dihydrochloride] | − (less than 25%) | +++ (more than 75% of that of isoproterenol) |  | 
CCC[C@@H]1CC[C@H]([C@@H](O)c2cncc(F)c2)N1.O=C(O)/C=C\C(=O)O [Example 4, (S)-(5-Fluoropyridin-3-yl)((2R,5R)-5-propylpyrrolidin-2-yl)methanol maleate] |  |  | − (less than 25%) | ++ (between 75 and 50%)
CC1(C)CC[C@H]([C@H](O)c2cncc(O)c2)N1 [Example 7] |  |  | − (less than 25%) | ++ (between 75 and 50%)
CCC[C@@H]1CCCC[C@H]([C@@H](O)c2cncc(F)c2)N1 [Example 14, (S)-(5-Fluoropyridin-3-yl)((2R,7R)-7-propylazepan-2-yl)methanol] | − (less than 25%) | − (less than 25%) |  | 
CC1(C)C[C@@H]([C@H](O)c2cncc(F)c2)N1 [Example 10, (R)-((S)-4,4-Dimethylazetidin-2-yl)(5-fluoropyridine-3-yl)methanol dihydrochloride] | − (less than 25%) | + (between 50 and 25%) |  | 
